Reference: a melting point compilation (Tetko et al.; mined from patent text by program, amines drawn as free bases though some values may be those of a salt)

`CC(C)(C)c1ccc(S(=O)(=O)NCc2ccc(C(=O)O)cc2)cc1` showed a melting point of 290 to 291 °C. `COC(=O)c1ccc(C(=O)NS(=O)(=O)c2ccccc2)cc1` showed a melting point of 267 to 270 °C. `CC(C)(C)C(O)C(CC1CCCCC1)n1cncn1` (stereo not drawn) gave a melting point of 104 to 107 °C. For `Cc1nn(CC(=O)c2ccc(Cl)cc2)c(=O)n1-c1ccc(N2CCN(c3ncc(O)cn3)CC2)cc1`, the melting point was 225 °C. For `CC1CCN(c2c(-c3c(F)cc(F)cc3F)c(Cl)nc3nc(S)nn23)CC1`, the melting point was 194 °C. In the case of `CC1(C)CC(N(c2nc(F)nc(N(C3CC(C)(C)NC(C)(C)C3)C3CC(C)(C)NC(C)(C)C3)n2)C2CC(C)(C)NC(C)(C)C2)CC(C)(C)N1`, the melting point is reported as 298 to 304 °C. Work on `c1cn(-c2ccc(N3CCNCC3)cc2)cn1` yielded a melting point of 177 to 180 °C. With `COc1ccc2c(c1)C(c1ccc([N+](=O)[O-])cc1)=Nn1c(C)nnc1C2` the melting point was 192 to 194 °C. In the case of `CCCn1nc(C(C)C)c(C(=O)OCc2ccccc2C(=O)c2ccccc2)c1Cc1ccc(-c2ccccc2S(N)(=O)=O)c(F)c1`, the melting point is reported as 49 to 51 °C. For `COC(=O)CSc1cc(NC(=O)OC(C)(C)C)c([N+](=O)[O-])cc1I`, the melting point was 110 to 112 °C. In the case of `O=C(Nc1ccc(CN2C(=O)C3CCCC3N(C(=O)CN3C(=O)c4ccccc4C3=O)c3ccccc32)cc1)Oc1ccccc1` (stereo not drawn), the melting point is reported as 185 to 187 °C. In the case of `CS(=O)(=O)c1ccc(NC(=O)c2ccccc2Br)cc1`, the melting point is reported as 168 to 169 °C. Work on `O=C(O)c1ccccc1OCC(F)(F)F` yielded a melting point of 85 to 86.5 °C. In the case of `CC(C)(Oc1ccc(Oc2ccc(OC(C)(C)C(=O)O)cc2)cc1)C(=O)O`, the melting point is reported as 125 °C. In the case of `O=[N+]([O-])c1ccc(S(=O)(=O)NCc2ccc(Cl)cc2)c([N+](=O)[O-])c1`, the melting point is reported as 161 to 162 °C. Molecule `O=C1c2ccccc2C(=O)N1CC(=O)N1c2ccccc2N(Cc2cccnc2)C(=O)[C@H]2CCC[C@H]21` (relative stereo) has a melting point of 220 to 223 °C. For `CCn1cc(C(=O)O)c(=O)c2cc(Cl)c(N(C)C)cc21`, the melting point was 210 °C. `CN(O)C(=O)CCc1ccc2c(c1)Cc1ccccc1CO2` showed a melting point of 120 to 122 °C. Work on `Cc1oc(-c2ccccc2)nc1COc1ccc(CCCCC2OC(=O)NC2=O)cc1` (stereo not drawn) yielded a melting point of 186 to 187 °C. Work on `Cc1c(C)c(NC(=O)CC(C)(C)C)c2c(c1C)C(O)(c1ccc(C(C)C)cc1)C(C)(C)O2` (stereo not drawn) yielded a melting point of 178 to 179 °C. Molecule `CCOC(=O)C(Oc1ccc(Cl)cc1)C(C)C` (stereo not drawn) has a melting point of 88 to 91 °C. `N#Cc1ccc2c(c1)C[C@H](NS(=O)(=O)c1ccccc1)CN2C(=O)c1ccccc1` gave a melting point of 174 to 175 °C. With `Nc1cc(-c2ccncc2)n[nH]c1=O` the melting point was greater than 300 °C. For `CCOC(=O)CSc1nc(Cl)cc(-c2ccccc2)n1`, the melting point was 82 to 84 °C. For `COc1cc2c(cc1OC)C(C#N)N(C(=O)c1ccccc1)C=C2` (stereo not drawn), the melting point was 155 to 157 °C. With `CC(=O)NCCn1ccc2c1-c1cc(Cl)ccc1CC2` the melting point was 144 to 146 °C. Molecule `COc1ccc2c(c1)C(OC(C)C)=C(C(N)=O)S2=O` (stereo not drawn) has a melting point of 168 to 170 °C. With `O=C(O)c1cc(OCCCCCCOc2ccc(-c3ccccc3)cc2)ccc1OCc1ccccc1` the melting point was 131 to 133 °C. `CNC(=O)Oc1ccc(NC(=O)C(Cl)Cl)c(C)c1` showed a melting point of 199 to 201 °C. Molecule `Oc1ccc2c(c1)C=CC=CS2` has a melting point of 165 to 166 °C. `CC(C)Oc1cccc(NC(=O)NCc2c(-c3ccccc3)c3cc(Cl)ccc3n2C)c1` showed a melting point of 218 to 220 °C. With `CC(C)(C)C(OC(=O)Cl)C(Oc1ccc(Cl)cc1)N1CN=CN1` (stereo not drawn) the melting point was 75 to 80 °C. `CCC(CC)N(Cc1ccc(C#N)cc1F)S(=O)(=O)c1ccc(F)cc1` gave a melting point of 102 to 104 °C. In the case of `Nc1cc(CO)cc(S(N)(=O)=O)c1Cc1ccccc1`, the melting point is reported as 159 to 161 °C. For `N#CCCCCCNC(N)=S`, the melting point was 69 to 71 °C. `O=C1NC(=O)C(Cc2ccc(OCCN3c4ccccc4Oc4ccccc43)cc2)S1` (stereo not drawn) gave a melting point of 170 to 172 °C. With `C[C@H]1C[C@@H](NC(=O)C(F)(F)F)CC(O)O1` (stereo partly drawn) the melting point was 159 to 160 °C. Molecule `CC(C)(C)CNc1nc(C#N)nc2ccc(OCc3ccncc3)cc12` has a melting point of 203 to 205 °C.
